Laboratory results as given in paper PMC8772704, “Quantification of Fosfomycin in Combination with Nine Antibiotics in Human Plasma and Cation-Adjusted Mueller-Hinton II Broth via LCMS” (Antibiotics, 2022).

Legend:
[1] = Plasma concentrations in four patients on fosfomycin-based combination therapy (pilot clinical feasibility study, LCMS/MS)
Protocol: For 20 µL of plasma/CAMHB sample, 20 µL of water and 20 µL of stable-isotope as internal standard (IS) were added and vortexed. 180 µL of acetonitrile was added for protein precipitation and subsequently removed by centrifugation (12,700 rpm for 10 min at 25 °C). Finally, 15 µL of the supernatant was diluted with 225 µL formic acid in water (0.1% v/v), and 10 µL was injected for LCMS/MS analysis. For the calibration curve and QCs, 20 µL of the corresponding antibiotic standard working solution was added instead of water.
Samples were analyzed using a Nexera X2 LCMS 8060 system (Shimadzu, Kyoto, Japan). […] Electrospray ionization employing positive and negative ion mode with multiple reaction monitoring was used for analyte quantification (Table S1). Data were acquired and analyzed using Shimadzu LabSolutions (Version 5.97).
The assay method described in this paper has been applied to a pilot clinical feasibility study to evaluate the proportion of patients with sub-optimal β-lactam levels and the need for dose adjustments in infected patients with unpredictable pharmacokinetics. We described a case series of four patients where they received in vitro guided antibiotic combination therapy using a fosfomycin-based combination regimen to treat a carbapenem-resistant Gram-negative bacteria infection. These four patients were recruited into the BLAST-2 study as the combination regimen contains a β-lactam antibiotic. In this case series, two were undergoing intermittent hemodialysis, and two patients had normal renal function. In the two patients on hemodialysis, they were on a dosing regimen of 8 g of fosfomycin on dialysis days (3 g at least 4 h before dialysis session and 5 g after completion of dialysis). The remaining two patients received 8 g of fosfomycin given every 8 h as a prolonged infusion.
Blood samples (2–3 mL from an indwelling catheter) were collected four times over a dosing interval of the β-lactam dosing regimen and centrifuged (10 min at 3000 rpm) (Eppendorf 5425R). The resultant plasma was stored (within 15 min of collection) at −80 °C until assay.

[2] = Long-term storage stability of antibiotics in combination with fosfomycin spiked in plasma/CAMHB (−30 °C, −80 °C); type: physicochemical; settings: for Mean accuracy (%), Table S17 / Mean accuracy (%), Table S16 / Mean accuracy (%), Table S18 / Mean accuracy (%), Table S15: CAMHB; for Mean accuracy (%), Table S17 / Mean accuracy (%), Table S16 / Mean accuracy (%), Table S18 / Mean accuracy (%), Table S11 / Mean accuracy (%), Table S13 / Mean accuracy (%), Table S12 / Mean accuracy (%), Table S14 / Mean accuracy (%), Table S15: combination with fosfomycin; for Mean accuracy (%), Table S17 / Mean accuracy (%), Table S13: 2 weeks at -80 °C; for Mean accuracy (%), Table S16 / Mean accuracy (%), Table S12: 4 weeks at -30 °C; for Mean accuracy (%), Table S18 / Mean accuracy (%), Table S14: 4 weeks at -80 °C; for Mean accuracy (%), Table S11 / Mean accuracy (%), Table S13 / Mean accuracy (%), Table S12 / Mean accuracy (%), Table S14: plasma; for Mean accuracy (%), Table S11 / Mean accuracy (%), Table S15: 2 weeks at -30 °C
Protocol: (§1) The stability of fosfomycin in combination with other antibiotics in plasma/CAMHB was evaluated under various operational conditions. Spiked plasma/CAMHB samples were evaluated at 7 h and 15 h in the autosampler at 4 °C. Long-term stability was evaluated up to 4 weeks of antibiotic-spiked plasma/CAMHB samples at LQC, MQC, and HQC concentrations stored at −30 °C and −80 °C.

[3] = 32-day stability of stock solutions stored at −80 °C; type: physicochemical; settings: stock solution stored at -80 °C; peak area Day 32 vs Day 1
Protocol: Stability of stock solutions
All stock solutions of antibiotics and their corresponding stable-isotope variants were measured prior to cold storage at -80 °C and tested at 32 days later.
Stability was determined by comparing the peak area of each drug between its Day 1 and Day 32 measurement. Acceptable criteria for stability was met if the […]

[4] = Autosampler stability at 4 °C of extracted antibiotic-spiked plasma/CAMHB samples; settings: for Mean accuracy (%), Table S8 / Mean accuracy (%), Table S10: CAMHB extracted samples; for Mean accuracy (%), Table S8 / Mean accuracy (%), Table S7: 7 h autosampler 4 °C; for Mean accuracy (%), Table S10 / Mean accuracy (%), Table S9: 15 h autosampler 4 °C; for Mean accuracy (%), Table S7 / Mean accuracy (%), Table S9: plasma extracted samples
Protocol: as §1

[5] = HQC: nominal mg/L CAZ 150, FEP 200, PIP 250, ATM 300, MEM 200, DOR 175, LVX 30, CEFT 250, TZB 87.5, TGC 20, AVI 30, FOF 1000
[6] = LQC: nominal 1 mg/L (levofloxacin, avibactam 0.5; fosfomycin 10)
[7] = MQC: nominal mg/L CAZ 75, FEP 100, PIP 150, ATM 150, MEM 100, DOR 87.5, LVX 15, CEFT 125, TZB 43.75, TGC 10, AVI 15, FOF 500

Row | Mean accuracy (%), Table S17 ([2]; HQC (nominal as E15)) | Mean accuracy (%), Table S17 ([2]; LQC (nominal as E13)) | Mean accuracy (%), Table S17 ([2]; MQC (nominal as E14)) | Mean accuracy (%), Table S16 ([2]; HQC (nominal as E15)) | Mean accuracy (%), Table S16 ([2]; LQC (nominal as E13)) | Mean accuracy (%), Table S16 ([2]; MQC (nominal as E14)) | Mean accuracy (%), Table S18 ([2]; HQC (nominal as E15)) | Mean accuracy (%), Table S18 ([2]; LQC (nominal as E13)) | Mean accuracy (%), Table S18 ([2]; MQC (nominal as E14)) | Mean accuracy (%), Table S11 ([2]; HQC (nominal as E15)) | Mean accuracy (%), Table S11 ([2]; LQC (nominal as E13)) | Mean accuracy (%), Table S11 ([2]; MQC (nominal as E14)) | Mean accuracy (%), Table S13 ([2]; HQC (nominal as E15)) | Mean accuracy (%), Table S13 ([2]; LQC (nominal as E13)) | Mean accuracy (%), Table S13 ([2]; MQC (nominal as E14)) | Mean accuracy (%), Table S12 ([2]; HQC (nominal as E15)) | Mean accuracy (%), Table S12 ([2]; LQC (nominal as E13)) | Mean accuracy (%), Table S12 ([2]; MQC (nominal as E14)) | Mean accuracy (%), Table S14 ([2]; HQC (nominal as E15)) | Mean accuracy (%), Table S14 ([2]; LQC (nominal as E13)) | Compound | also measured
1 | 99.6% | 104.3% | 97.3% | 66.1% | 60.1% | 63.5% | 97.4% | 97.9% | 95.4% | 93.3% | 86.6% | 89.7% | 105.4% | 104.2% | 95.0% | 91.8% | 106.1% | 93.8% | 96.1% | 101.8% | C[C@@H](O)[C@H]1C(=O)N2C(C(=O)O)=C(S[C@@H]3CN[C@H](C(=O)N(C)C)C3)[C@H](C)[C@H]12 [Meropenem, meropenem] | Mean total plasma concentration (range) ([1]; Patient 004, meropenem 2 g every 8 h as a 3-h infusion): 6.7 to 23.0 mg/L; Stability verdict (within ±15% of nominal) ([2]; CAMHB samples stored at −30 °C, 4 weeks): instability; Mean accuracy (%), Table S14 ([2]; MQC (nominal as E14)): 95.2%; 32 Day Stability (%) [3]: 100.48%; Mean accuracy (%), Table S8 ([4]; HQC (nominal as E15)): 107.7%; Mean accuracy (%), Table S8 ([4]; LQC (nominal as E13)): 104.0%; Mean accuracy (%), Table S8 ([4]; MQC (nominal as E14)): 102.6%; Mean accuracy (%), Table S10 ([4]; HQC (nominal as E15)): 106.9%; Mean accuracy (%), Table S10 ([4]; LQC (nominal as E13)): 107.7%; Mean accuracy (%), Table S10 ([4]; MQC (nominal as E14)): 100.8%; Mean accuracy (%), Table S7 [4, 5]: 99.6%; Mean accuracy (%), Table S7 [4, 6]: 110.0%; Mean accuracy (%), Table S7 [4, 7]: 95.5%; Mean accuracy (%), Table S9 ([4]; HQC (nominal as E15)): 97.9%; Mean accuracy (%), Table S9 ([4]; LQC (nominal as E13)): 109.1%; Mean accuracy (%), Table S9 ([4]; MQC (nominal as E14)): 98.9%
2 | 96.3% | 110.6% | 99.5% | 94.6% | 103.6% | 95.4% | 101.8% | 104.7% | 98.2% | 98.4% | 102.2% | 92.1% | 95.6% | 101.8% | 94.6% | 94.0% | 104.5% | 92.4% | 97.7% | 100.8% | C[C@@H]1O[C@@H]1P(=O)(O)O [Fosfomycin, fosfomycin] | Mean total plasma concentration (range) ([1]; four patients, samples measured in triplicates): 11.3 to 746.9 mg/L; Mean accuracy (%), Table S15 ([2]; HQC (nominal as E15)): 98.5%; Mean accuracy (%), Table S15 ([2]; LQC (nominal as E13)): 103.1%; Mean accuracy (%), Table S15 ([2]; MQC (nominal as E14)): 94.7%; Mean accuracy (%), Table S14 ([2]; MQC (nominal as E14)): 90.6%; 32 Day Stability (%) [3]: 95.80%; Mean accuracy (%), Table S8 ([4]; HQC (nominal as E15)): 96.0%; Mean accuracy (%), Table S8 ([4]; LQC (nominal as E13)): 107.1%; Mean accuracy (%), Table S8 ([4]; MQC (nominal as E14)): 95.9%; Mean accuracy (%), Table S10 ([4]; HQC (nominal as E15)): 95.6%; Mean accuracy (%), Table S10 ([4]; LQC (nominal as E13)): 107.4%; Mean accuracy (%), Table S10 ([4]; MQC (nominal as E14)): 94.8%; Mean accuracy (%), Table S7 [4, 5]: 102.9%; Mean accuracy (%), Table S7 [4, 6]: 104.5%; Mean accuracy (%), Table S7 [4, 7]: 101.0%; Mean accuracy (%), Table S9 ([4]; HQC (nominal as E15)): 101.4%; Mean accuracy (%), Table S9 ([4]; LQC (nominal as E13)): 106.3%; Mean accuracy (%), Table S9 ([4]; MQC (nominal as E14)): 101.8%
